Measured values published in patent publication US8598120B2 (Amylin Pharmaceuticals, LLC, priority 2004, dated 2013).
Square brackets hold non-standard residues; d marks the D form. Ends that are not written are not given here. * marks the point of attachment. Pentanoyl(4-Me) = CC(C)CCC(=O)*; Orn = NCCC[C@H](N)C(=O)O; Aib = CC(C)(N)C(=O)O; For = O=C*

Assay: Food intake assay in overnight fasted mice
Assay type: in vivo
Details: 25 nmol/kg intraperitoneal
Method: Female NIH/Swiss mice (8-14 weeks old) were group housed with a 12:12 hour light:dark cycle. Water and a standard pelleted mouse chow diet are available ad libitum, except as noted. Animals are fasted starting at approximately 1500 hrs, 1 day prior to experiment.
The effects of treatment on food intake are expressed as % change relative to control.

| Substance | cumulative food intake compared to vehicle, 30 min [%] | cumulative food intake compared to vehicle, 60 min [%] | cumulative food intake compared to vehicle, 120 min [%] | cumulative food intake compared to vehicle, 180 min [%] |
| --- | --- | --- | --- | --- |
| Isocaproyl-STAVL(Aib)[K(For)]LSQEL(Aib)[K(For)]LQTYPRTNVGSNTY ({Pentanoyl(4-Me)}-STAVL[Aib]K(For)LSQEL[Aib]K(For)LQTYPRTNVGSNTY-NH2; SMILES CC(C)CCC(=O)N[C@@H](CO)C(=O)N[C@H](C(=O)N[C@@H](C)C(=O)N[C@H](C(=O)N[C@@H](CC(C)C)C(=O)NC(C)(C)C(=O)N[C@@H](CCCCNC=O)C(=O)N[C@@H](CC(C)C)C(=O)N[C@@H](CO)C(=O)N[C@@H](CCC(N)=O)C(=O)N[C@@H](CCC(=O)O)C(=O)N[C@@H](CC(C)C)C(=O)NC(C)(C)C(=O)N[C@@H](CCCCNC=O)C(=O)N[C@@H](CC(C)C)C(=O)N[C@@H](CCC(N)=O)C(=O)N[C@H](C(=O)N[C@@H](Cc1ccc(O)cc1)C(=O)N1CCC[C@H]1C(=O)N[C@@H](CCCNC(=N)N)C(=O)N[C@H](C(=O)N[C@@H](CC(N)=O)C(=O)N[C@H](C(=O)NCC(=O)N[C@@H](CO)C(=O)N[C@@H](CC(N)=O)C(=O)N[C@H](C(=O)N[C@@H](Cc1ccc(O)cc1)C(N)=O)[C@@H](C)O)C(C)C)[C@@H](C)O)[C@@H](C)O)C(C)C)[C@@H](C)O) [Compound 32] | −15 | −21 | −31 | – |
| KCNTATCVLGRLAAALHRLQTYPRTNTGSNTY [Compound 113] | −79 | −86 | −55 | – |
| KCNTATCVLGRLSQELHRLQTLLQTYPRTNTGSNTY [Compound 48] | −54 | −51 | −36 | – |
| KCNTATCATQRLSQELHRLQTYPRTNVGSNTY [Compound 52] | −29 | −24 | −23 | – |
| KCNTATCVLGRLTEFLHRLQTYPRTNTGSNTY [Compound 103] | −50 | −44 | −30 | – |
| KCNTATCVLGRLSQELHRLQTMPRTNTGSNTY [Compound 99] | −57 | −55 | −50 | – |
| KCNTATCVLGRLSQELH[Orn]LQTYPRTNTGSNTY (cysteine pairing not given here) [Compound 77] | −46 | −43 | −44 | – |
| KCNTATCVLGRLSQELHRLQTYPRTNTGSKAF [Compound 93] | −43 | −30 | −27 | −29 |
| KCNTATCVLGRLSQELHRYPRTNTGSNTY [Compound 39] | 7 | −14 | −23 | – |
| KCNTATCLLQQLQKLLQKLKQYPRTNTGSNTY [Compound 35] | −20 | −16 | −18 | – |
| KCNTATCVLGRLSQELHRLQTLPRTNTGSNTY [Compound 11] | −52 | −47 | −38 | −35 |
| KCNTSTCATQRLANELVRLQTYPRTNVGSNTY [Compound 53] | −92 | −89 | −36 | – |
| CNTATCVLGRLADFLHRLQTYPRTNTGSNTY [Compound 110] | −80 | −72 | −59 | – |
| Isocaproyl-STAVL(Aib)RLSQELRLQTYPRTNTGSGTP ({Pentanoyl(4-Me)}-STAVL[Aib]RLSQELRLQTYPRTNTGSGTP-NH2; SMILES CC(C)CCC(=O)N[C@@H](CO)C(=O)N[C@H](C(=O)N[C@@H](C)C(=O)N[C@H](C(=O)N[C@@H](CC(C)C)C(=O)NC(C)(C)C(=O)N[C@@H](CCCNC(=N)N)C(=O)N[C@@H](CC(C)C)C(=O)N[C@@H](CO)C(=O)N[C@@H](CCC(N)=O)C(=O)N[C@@H](CCC(=O)O)C(=O)N[C@@H](CC(C)C)C(=O)N[C@@H](CCCNC(=N)N)C(=O)N[C@@H](CC(C)C)C(=O)N[C@@H](CCC(N)=O)C(=O)N[C@H](C(=O)N[C@@H](Cc1ccc(O)cc1)C(=O)N1CCC[C@H]1C(=O)N[C@@H](CCCNC(=N)N)C(=O)N[C@H](C(=O)N[C@@H](CC(N)=O)C(=O)N[C@H](C(=O)NCC(=O)N[C@@H](CO)C(=O)NCC(=O)N[C@H](C(=O)N1CCC[C@H]1C(N)=O)[C@@H](C)O)[C@@H](C)O)[C@@H](C)O)[C@@H](C)O)C(C)C)[C@@H](C)O) [Compound 29] | 4 | −1 | −25 | – |
| KCNTATCVLGRLSRSLHRLQTYPRTNTGSNTY [Compound 86] | −44 | −26 | −16 | – |
| KCNTASCVLGRLSQELHRLQTYPRTNTGSNTY [Compound 36] | −34 | −22 | −24 | −25 |

| Substance | cumulative food intake compared to vehicle, 30 min [%] | cumulative food intake compared to vehicle, 60 min [%] | cumulative food intake compared to vehicle, 120 min [%] | cumulative food intake compared to vehicle, 180 min [%] |
| --- | --- | --- | --- | --- |
| KCNTATCVLG[Orn]LSQELH[Orn]LQTYPRTNTGSNTY (cysteine pairing not given here) [Compound 61] | −23 | −27 | −32 | – |
| KCNTATCVLGRLAQFLHRLQTYPRTNTGSNTY [Compound 106] | −58 | −54 | −39 | – |
| Isocaproyl-STAVL(Aib)[K(For)]LSQEL(Aib)[K(For)]LQTYPRTNTGSNTY ({Pentanoyl(4-Me)}-STAVL[Aib]K(For)LSQEL[Aib]K(For)LQTYPRTNTGSNTY-NH2; SMILES CC(C)CCC(=O)N[C@@H](CO)C(=O)N[C@H](C(=O)N[C@@H](C)C(=O)N[C@H](C(=O)N[C@@H](CC(C)C)C(=O)NC(C)(C)C(=O)N[C@@H](CCCCNC=O)C(=O)N[C@@H](CC(C)C)C(=O)N[C@@H](CO)C(=O)N[C@@H](CCC(N)=O)C(=O)N[C@@H](CCC(=O)O)C(=O)N[C@@H](CC(C)C)C(=O)NC(C)(C)C(=O)N[C@@H](CCCCNC=O)C(=O)N[C@@H](CC(C)C)C(=O)N[C@@H](CCC(N)=O)C(=O)N[C@H](C(=O)N[C@@H](Cc1ccc(O)cc1)C(=O)N1CCC[C@H]1C(=O)N[C@@H](CCCNC(=N)N)C(=O)N[C@H](C(=O)N[C@@H](CC(N)=O)C(=O)N[C@H](C(=O)NCC(=O)N[C@@H](CO)C(=O)N[C@@H](CC(N)=O)C(=O)N[C@H](C(=O)N[C@@H](Cc1ccc(O)cc1)C(N)=O)[C@@H](C)O)[C@@H](C)O)[C@@H](C)O)[C@@H](C)O)C(C)C)[C@@H](C)O) [Compound 31] | −11 | −18 | −23 | – |
| KCNTATCVLGRLSQELHRLQTLPPTNVGSNTY [Compound 13] | −40 | −33 | −25 | −24 |
| CSNASTCVLGRLSQELHRLQTYPRTNTGSNTY [Compound 21] | 9 | −5 | −18 | −18 |
| KCNTATCVLGRLSQELHRLQTYPPTNTGSNTY [Compound 12] | −43 | −39 | −37 | −32 |
| KCNTATCVLGRLSQELHRLQTYPRTNTGSETF [Compound 91] | −59 | −47 | −26 | −24 |
| KCNTSTCVLGRLSQELHRLQTYPRTNTGSNTY [Compound 50] | −70 | −62 | −48 | – |
| KCNTATCVLGKLSQELHKLQTYPRTNTGSNTY [Compound 49] | −33 | −26 | −25 | – |
| KCNTATCVLGRLADFLHRFQTFPRTNTGSGTP [Compound 109] | −61 | −54 | −43 | – |
| KCNTATCVLGRLSQELHRLQTYPRTNTGSGTP [Compound 25] | −29 | −34 | −45 | – |
| KCNTATCVTHRLSQELHRLQTYPRTNTGSNTY [Compound 87] | −43 | −32 | −21 | – |
| KCNTATCVLGRLSQELHRLQNFVPRTNTGSNTY [Compound 90] | −55 | −41 | −24 | −15 |
| KCNAATCVLGRLSQELHRLQTYPRTNTGSNTY [Compound 17] | −42 | −30 | −30 | −25 |
| KCNTATCVLGRLFDFLHRLQTYPRTNTGSNTY [Compound 112] | −62 | −65 | −50 | – |
